Assays:
[1] = Temperature dependent UV-vis stability of the complexes; assay type: physicochemical; parameters: key to Δλ260: change in absorbance at 260 nm (absorbance units); conditions: for λ260 (absorbance at 260 nm) / UV-vis stability profile: 0.1% DMSO/ddH2O; for UV-vis stability profile: temperature increments 20-80 °C, 6 h time interval
Protocol: Wavelength (nm) Wavelength (nm)
Figure 3. Temperature dependant UV-VIS spectra of (A) 1Ru and (B) 2Ru in 0.1%DMSO/ddH2O solution recorded
over a 6 h time interval.
Table 1. λ260a and Δ λ260b of complexes 1Ru and 2Ru at 20 °C – 80 °C

HUVEC cells = experiment: Cytotoxicity on HUVECs, trypan blue exclusion assay; assay type: cell-based, human; conditions: 40 μM, 24 h, % of control, p > 0.05 vs control
Protocol: The biocompatibility of flavones (1 and 2)[30] alongside their ruthenium(II) metal complexes (1Ru and 2Ru) with HUVEC cells was established using the trypan blue exclusion assay. A concentration four times higher (i.e. 40 μM) than the highest concentration used for the tube formation antiangiogenic evaluation study (i.e. 10 μM) was selected for this cytotoxic assay.
Cytotoxic activity of treatments on HUVECs using trypan blue exclusion assay.[55] HUVECs were seeded in 96 well plates at 1 × 10^5 cells per mL and cultured for 24 h. Cells were then treated with either luteolin, the synthesised derivatives at 40 μM or culture medium (control) for 24 h. After 24 h, solutions were removed and cells washed with 100 μL PBS followed by the addition of 50 μL trypsin–EDTA and incubation for 5 min to detach the cells. 50 μL of EGM-2 media was added to the wells. 50 μL aliquots of the cell suspension were mixed with equal volume of trypan blue (TB) 0.2% v/v (prepared from 0.4% TB diluted with PBS) then the cells were counted using a haemocytometer. Number of viable and dead cells were counted manually and % cell viability of each treatment was expressed as % of control using the equation:% Cell Viability = (Cell viability in treatment/Cell viability in control) × 100where cell viability was calculated as follows:Cell Viability = Number of viable cells/Total number of cells(viable and dead).

MDA-MB-231 [2] = experiment: Cell viability, 72 h MTT assay; assay type: cell-based, human; conditions: MDA-MB-231, 72 h MTT, mean ± SEM, n = 3
Protocol: (§1) The unique chemical features and coordination geometries of metal ions can add several additional binding interactions that can potentially enhance their anticancer properties for example by allowing intercalation and exploitation of their redox potential.[24] […] In that context, coordination of derivative (2) with a Ru(II) metal ligand is a promising approach to further improve its antiproliferative activity.
(§2) MCF-7 and MDA-MB-231 cells were seeded at a density of 4 × 10^4 and 2 × 10^4 cells per mL, respectively, into 96 well plates and incubated to allow the attachment for 24 h. After 24 h, the cells were treated with one of the synthesised derivatives at range of concentrations (0–100 μM) for 67 h. After 67 h, 20 μL of MTT (5 mg mL^−1) solution in PBS was added to each well and the cells were incubated for 5 h. The purple crystals formed were dissolved in 100 μL of DMSO and the plates were read at 560 nm using a SPECTRA max UV spectrometer (Bio-Rad). The data represented are the mean of the three individual experiments.

MCF-7 [3] = experiment: Cell viability, 72 h MTT assay; assay type: cell-based, human; conditions: MCF-7, 72 h MTT, mean ± SEM, n = 3
Protocol: as §1, §2

MDA-MB-231 [4] = experiment: Wound healing (migration) 24 h scratch assay; assay type: cell-based, human; conditions: for rise in compound 2's migration inhibition activity upon metal coordination: p < 0.05
Protocol: (§3) Malignant cell migration is essential for tumour invasion and metastasis.[1] Thus, the ability of the synthetic flavones (1 and 2) and their Ru(II) metal complexes (1Ru and 2Ru) to inhibit the migration of breast cancer cells (MCF-7 and MDA-MB-231) was assessed by an in vitro 24 h scratch assay. Low, sub-cytotoxic concentrations of 1, 10 and 20 μM were used in this evaluation.
(§4) MCF-7 or MDA-MB-231 cells were seeded in 12-well plates at 2 × 10^5 or 1 × 10^5 cells per mL, respectively, and cultured until 70–80% confluency. Afterwards, they were serum-starved (0% serum) for 24 h to inactivate the cell proliferation. A scratch was performed on the cell monolayers using a 200 μL pipette tip. Cells were then washed twice with PBS and treated with complete medium and one of the synthesized derivatives at 1, 10 or 20 μM. […] Images of the scratches were taken immediately after performing the scratch (t = 0 h) and at 24 h (t = 24 h). The area not covered by the cells was quantified using ImageJ software. % of wound closure was calculated using the following equation:100 × ((Area of scratch at t0 − Area of scratch at t24)/Area of scratch at t0)

MCF-7 [5] = experiment: Wound healing (migration) 24 h scratch assay; assay type: cell-based, human
Protocol: as §3, §4

SMILES	Δλ260 ([1]; 20 °C (baseline))	λ260 (absorbance at 260 nm) ([1]; 20 °C)	Δλ260 ([1]; 40 °C minus 20 °C)	λ260 (absorbance at 260 nm) ([1]; 40 °C)	Δλ260 ([1]; 60 °C minus 20 °C)	λ260 (absorbance at 260 nm) ([1]; 60 °C)	Δλ260 ([1]; 80 °C minus 20 °C)	λ260 (absorbance at 260 nm) ([1]; 80 °C)	UV-vis stability profile [1]	Cell viability of HUVECs (HUVEC cells)	IC50 (MDA-MB-231 [2])	IC50 (MCF-7 [3])	migration inhibition (MCF-7 [5]; MCF-7, 1 μM)	migration inhibition (MCF-7 [5]; MCF-7, 10 μM)	migration inhibition (MCF-7 [5]; MCF-7, 20 μM)	other results
Cc1ccc(C(C)C)cc1.O=c1cc(-c2ccc(Cl)cc2)oc2cc(O)cc([O-])c12.[Cl-].[Ru+2] [1Ru, chlorido [(5-oxo-κO)-7-hydroxy-2-(4′-chlorophenyl)-4H-chromen-4-onato-κO] (η^6-p-cymene)ruthenium(II)]	0	0.0435	0.00072	0.04422	0.00174	0.04525	0.00388	0.04738	sufficient stability	~100%	> 100 µM	66.2 ± 5 µM	50%	42%	41%	effect on the migration (MDA-MB-231 [4]; MDA-MB-231, 1, 10, 20 μM, 24 h): neither showed any effect
Cc1ccc(C(C)C)cc1.[Cl-].[O-]c1cc(O)cc2oc(-c3ccc(Cl)cc3)cc(=S)c12.[Ru+2] [2Ru, chlorido [(5-oxo-κO)-7-hydroxy-2-(4′-chlorophenyl)-4H-chromen-4-thionato-κO] (η^6-p-cymene)ruthenium(II)]	0	0.03108	0.0013	0.02973	0.0021	0.02902	0.0028	0.02832	sufficient stability	~100%	> 100 µM	> 100 µM	52%	49%	55%	migration inhibition (MDA-MB-231 [4]; MDA-MB-231, 1 μM, 24 h): 47%; rise in compound 2's migration inhibition activity upon metal coordination (MDA-MB-231 [4]; MDA-MB-231, 1 μM): 4%; migration inhibition (MDA-MB-231 [4]; MDA-MB-231, 10 μM, 24 h): 44%; migration inhibition (MDA-MB-231 [4]; MDA-MB-231, 20 μM, 24 h): 36%; rise in compound 2's migration inhibition activity upon metal coordination (MDA-MB-231 [4]; MDA-MB-231, 20 μM): 7%

From article PMC9945865, “Anticancer evaluation of new organometallic ruthenium(II) flavone complexes” (RSC Medicinal Chemistry, 2022)
